Measured values as given in ChEMBL document CHEMBL1142072, “Comparison of itraconazole and fluconazole treatments in a murine model of coccidioidal meningitis” (2007).
In brackets after ≈: the same amount, converted by molar mass. Activity calls are given as the source filed them. No cut-off for these calls is given here.

How the values were obtained:
Coccidioides immitis [1] = experiment: Reduction of fungal burden in Coccidioides immitis Silveira infected po dosed CD1 mouse brain, spinal cord, lung, kidney administered twice daily after 3 days of infection measured after 5 days relative to control; format: functional, organism-based
Coccidioides immitis [2] = experiment: Reduction of fungal burden in Coccidioides immitis Silveira infected CD1 mouse lung and kidney administered after 3 days of infection at 10 mg/kg, po bid after 5 days relative to control; format: functional, organism-based; parameters: dose 10 mg/kg
Coccidioides immitis [3] = experiment: Antifungal activity against Coccidioides immitis by broth macrodilution method; format: functional; conditions: for MIC50 / MIC90: Coccidioides immitis
Mus musculus [4] = experiment: Prolongation of survival in CD1 mouse infected with Coccidioides immitis Silveira administered after 3 days of infection at 10 mg/kg, po bid after 12 days relative to control; format: functional, organism-based; parameters: dose 10 mg/kg
Mus musculus [5] = experiment: Prolongation of survival in CD1 mouse infected with Coccidioides immitis Silveira administered after 3 days of infection at 25 mg/kg, po bid after 12 days relative to control; format: functional, organism-based; parameters: dose 25 mg/kg
Mus musculus [6] = experiment: Prolongation of survival in CD1 mouse infected with Coccidioides immitis Silveira administered after 3 days of infection at 50 mg/kg, po bid after 12 days relative to control; format: functional, organism-based; parameters: dose 50 mg/kg
Coccidioides immitis [7] = experiment: Effect on fungal burdens in Coccidioides immitis Silveira infected CD1 mouse brain administered after 3 days of infection at 50 mg/kg, po bid after 12 days; format: functional
Coccidioides immitis [8] = experiment: Effect on fungal burdens in Coccidioides immitis Silveira infected CD1 mouse spinal cord administered after 3 days of infection at 50 mg/kg, po bid after 12 days; format: functional
Coccidioides immitis [9] = experiment: Effect on fungal burdens in Coccidioides immitis Silveira infected CD1 mouse lung administered after 3 days of infection at 50 mg/kg, po bid after 12 days; format: functional, organism-based; parameters: dose 50 mg/kg
Coccidioides immitis [10] = experiment: Effect on Coccidioides immitis Silveira infection in CD1 mouse brain, spinal cord and lungs administered after 3 days of infection at 50 mg/kg, po bid after 10 days; format: functional, organism-based; parameters: dose 50 mg/kg
Mus musculus [11] = experiment: Prolongation of survival in po dosed CD1 mouse infected with Coccidioides immitis Silveira administered after 3 days of infection after 12 days relative to control; format: functional, organism-based

Question: For `OC(Cn1cncn1)(Cn1cncn1)c1ccc(F)cc1F` [FLUCONAZOLE], which Activity (Coccidioides immitis [1]) is on record?
Answer: Dose-dependent effect

Question: And the Activity (Coccidioides immitis [2])?
Answer: inactive

Question: What about the MFC50 (Coccidioides immitis [3]) of the same molecule?
Answer: 25 µg/mL (≈ 81.6 µM)

Question: What about the MFC90 (Coccidioides immitis [3]) of the same molecule?
Answer: >100 µg/mL

Question: What about the MIC50 (Coccidioides immitis [3]) of the same molecule?
Answer: 25 µg/mL (≈ 81.6 µM)

Question: What about the MIC90 (Coccidioides immitis [3]) of the same molecule?
Answer: > 100 µg/mL

Question: And the Activity (Mus musculus [4])?
Answer: Active

Question: What about the Activity (Mus musculus [5]) of the same molecule?
Answer: Active

Question: And the Activity (Mus musculus [6])?
Answer: Active

Question: And the Activity (Coccidioides immitis [7])?
Answer: Active

Question: And the Activity (Coccidioides immitis [8])?
Answer: Active

Question: And the Activity (Coccidioides immitis [9])?
Answer: Active

Question: What about the Activity (Coccidioides immitis [10]) of the same molecule?
Answer: Active

Question: And the Activity (Mus musculus [11])?
Answer: Dose-dependent effect

Question: Which Activity (Coccidioides immitis [1]) does the source give for `CCC(C)n1ncn(-c2ccc(N3CCN(c4ccc(OCC5COC(Cn6cncn6)(c6ccc(Cl)cc6Cl)O5)cc4)CC3)cc2)c1=O` (configuration not stated) [ITRACONAZOLE] here?
Answer: Dose-dependent effect

Question: What about the MFC50 (Coccidioides immitis [3]) of the same molecule?
Answer: 1.56 µg/mL (≈ 2.21 µM)

Question: And the MFC90 (Coccidioides immitis [3])?
Answer: 6.25 µg/mL (≈ 8.86 µM)

Question: And the MIC50 (Coccidioides immitis [3])?
Answer: 0.78 µg/mL (≈ 1.11 µM)

Question: And the MIC90 (Coccidioides immitis [3])?
Answer: 1.56 µg/mL (≈ 2.21 µM)

Question: And the Activity (Mus musculus [4])?
Answer: Active

Question: And the Activity (Mus musculus [5])?
Answer: Active

Question: What about the Activity (Mus musculus [6]) of the same molecule?
Answer: Active

Question: And the log10CFU/g (Coccidioides immitis [7])?
Answer: 0.75

Question: And the log10CFU/g (Coccidioides immitis [8])?
Answer: 1.73

Question: What about the Activity (Coccidioides immitis [9]) of the same molecule?
Answer: Active

Question: And the Activity (Coccidioides immitis [10])?
Answer: Active

Question: And the Activity (Mus musculus [11])?
Answer: Dose-dependent effect
